Laboratory results from patent publication US9789101B2, “Methods and compositions for treating microbial infection using pyrroloquinone” (HELPERBY THERAPEUTICS LIMITED, priority 2010, dated 2017).
Counter-ions that a name gives are not always drawn. Like-named read-outs stand apart in the source and are kept apart here.

Legend:
[1] = test system: log phase Staphylococcus aureus; assay: Chequerboard analysis of HT00800059 and HT61 against log phase Staphylococcus aureus; assay type: cell-based, Staphylococcus aureus (Oxford)
Protocol: (§1) Staphylococcus aureus (Oxford); Gram positive; Reference strain.
Log phase growth of methicilin sensitive Staphylococcus aureus (MSSA) was carried out as follows: • Bacteria were grown in 10 ml of nutrient broth (No. 2, (Oxoid)) overnight at 37° C. with continuous shaking at 120 rpm. The overnight cultures were diluted 1000× with iso-sensitest broth. The cultures were incubated at 37° C. with shaking for 1-2 hours to reach log CFU 6. Viability of the bacteria was estimated by colony forming unit (CFU) counts. From serial 10-fold dilutions of the experimental cultures, 100 μl samples were added to triplicate plates of nutrient agar plates (Oxoid) or blood agar plates (Oxoid). CFUs were counted after incubation of the plates at 37° C. for 24 hours.
Bacterial cultures: 10 μl of overnight cultures was added to 10 ml of fresh iso-sensitest broth to make the inoculation to 10^6 CFU/ml. 290 μl of the cell suspension was added to each well of the 96 well plate, which was incubated at 37° C. for 24 hours. 300 μl of iso-sensitest broth without bacterial cells were added to wells of the plate as a no bacterial control.
MIC determination: The optical density of the bacterial cells was read at 405 nm using a plate reader (Bio TEK). The MIC concentration was determined as the lowest concentration of drug which inhibits the bacterial growth.
(§2) HT61 was dissolved in DMSO to the stock concentration of 10 mg/ml.
HT00800059 was dissolved in H2O to the stock solution 30.07 mg/ml.
The drugs were first diluted as follows: • 28.8 μl of HT61 at 10 mg/ml was added into 271.2 μl of H2O followed by diluting 2 fold for 6 times.
Both drugs were mixed as following pattern: 10 μl of HT00800059 from each dilution was added into the wells of a 96 well plate from top to bottom and 10 μl of HT61 from each dilution was added to the same 96 well plate from left to right. After addition of 280 μl log phase cell suspension, the final concentrations of drugs for each well in the 96 well plate are shown in the table below.
Incubation of the compounds with the bacterial suspension was carried out for 24 hours. The kill effect of the drug combination and signal drug MIC was measured by optical density reading at 405 nm with a plate reader (Bio TEK). The MIC concentration was determined as the lowest concentration of drug which inhibits the bacterial growth.
The fractional inhibitory concentration (FIC) index was carried out as follows: (MIC of drug A, tested in combination)/(MIC of drug A, tested alone)+(MIC of drug B, tested in combination)/(MIC of drug B, tested alone). The interaction was defined as synergistic if the FIC index was <1, additive if the FIC index was =1 and antagonistic if the FIC index was >1.

[2] = test system: stationary phase Staphylococcus aureus; assay: In vitro efficacy test against stationary phase Staphylococcus aureus (CFU counts); assay type: cell-based, Staphylococcus aureus (Oxford)
Protocol: as §1
Stationary phase growth of methicilin sensitive Staphylococcus aureus (MSSA) was carried out as follows:
Subculture of the bacterial strains on agar plates: Overnight S. aureus bacterial cultures were stored at −70° C. with 20% glycerol (cryoprotectant). A loopful of the frozen cells was streaked on a blood agar plate which was incubated at 37° C. overnight (or longer) as culture plate A. A single colony of each strain from the culture plate A was streaked on the blood agar plate which was incubated at 37° C. overnight (or longer) as culture plate B. The culture plate B was stored at 4° C. for a week and served as the initial inoculation plate.
Bacterial growth in broth culture: A single colony from culture plate B was inoculated in 10 ml of nutrient broth (No. 2, (Oxoid)), which was incubated overnight at 37° C. with continuous shaking at 120 rpm. 200 μl of the overnight culture was added into a 500 ml bottle containing 100 ml of nutrient broth. The 100 ml culture was incubated at 37° C. with continuous shaking for 6 to 7 days. Viability of the cultures is estimated by colony forming unit (CFU) counts at 2 hour intervals for the first 24 hours and 12 to 24 hours afterwards.
Colony Forming Unit (CFU) counts were performed as follows: From serial 10-fold dilutions of the cultures, 100 μl samples were added to one third of blood agar plates (Oxoid) in triplicate. CFUs were counted using an aCoLyte colony counter (Synbiosis) after incubation of the plates at 37° C. for 24 hours or longer.
7 day old stationary phase cultures were used. The stationary phase cultures were diluted to obtain CFU counts in the cell suspension of 10^6 to 10^7 CFU/ml. The cell suspension was used to test drug sensitivity.
as §2
HT00800059 was dissolved in H2O to the stock solution 10 mg/ml
The drugs were first diluted as follows: • 7.2 μl of HT61 at 10 mg/ml was added into 292.8 μl of H2O followed by diluting 2 fold, 3 times. • 57.6 μl of HT00800059 at 10 mg/ml was added into 242.4 μl of H2O followed by diluting 2 fold, 2 times. • 10 μl of HT00800059 from each dilution was added into the wells of a 96 well plate followed by the addition of 290 μl of bacterial cell suspension to make the final concentrations of HT00800059 at 64, 32 and 0 μg/ml. • […]
In combination of two drugs: 10 μl of HT61 from each dilution was added into the wells of a 96 well plate followed by the addition of 10 μl of HT00800059 from each dilution. […]

[3] = test system: clinically latent microorganisms; assay: Screening for ability to kill clinically latent microorganisms (method of WO2000028074); assay type: cell-based; conditions: observed by the Applicant
Description: International Patent Application, Publication Number WO2000028074 describes a method of screening compounds to determine their ability to kill clinically latent microorganisms. […] This observation has necessitated the development of novel antimicrobials which may be used to kill clinically latent microorganisms.
By way of example, WO2000028074 describes a suitable method of screening compounds to determine their ability to kill clinically latent microorganisms. A typical method may include the following steps: • (1) growing a bacterial culture to stationery phase; • (2) treating the stationery phase culture with one or more antimicrobial agents at a concentration and or time sufficient to kill growing bacteria, thereby selecting a phenotypically resistant sub-population; • (3) incubating a sample of the phenotypically resistant subpopulation with one or more test compounds or agents; and • (4) assessing any antimicrobial effects against the phenotypically resistant subpopulation.

Compound | MIC ([1]; Staphylococcus aureus) [µg/mL] | MIC ([1]; Staphylococcus aureus, read-out: alone MIC) [µg/mL] | MIC ([1]; Staphylococcus aureus, with HT61 4 μg/ml, Plate 1, read-out: MIC of HT00800059 + HT61) [µg/mL] | MIC ([1]; drug alone, Plate 2) [µg/mL] | HT00800059 MIC in combination ([1]; with HT61 4 μg/ml) [µg/mL] | MIC of HT00800059 + HT61 ([1]; with HT61 4 μg/ml, Plate 2) [µg/mL] | CFU killed ([2]; 32 μg/ml, over 8 hours) | CFU killed ([2]; 64 μg/ml, over 6 hours) | activity against clinically latent microorganisms [3]
CCCCOc1ccc(C(=O)CCN2CCCCC2)cc1 [HT00800059, dyclonine (1-(4-Butoxyphenyl)-3-(1-piperidinyl)-1-propanone) hydrochloride] | 512 | 512 | 128 | 512 | 128 | 128 | about 10^4 CFU | about 10^7 CFU | 
C/C(=C\C(=O)OCCCCCCCCC(=O)O)C[C@@H]1OC[C@H](C[C@@H]2O[C@H]2[C@@H](C)[C@H](C)O)[C@@H](O)[C@H]1O [Mupirocin] |  |  |  |  |  |  |  |  | little or no activity
